Measurements: US5998366A, “Method for ameliorating glutamic acid decarboxylase associated autoimmune disorders” (The Regents of the University of California, priority 1997, dated 1999)

Assays:
[1] = tested on: IDDM associated autoantibodies; experiment: ELISA of patient and control sera on plate-bound human GAD65 peptides; format: binding; conditions: none of the control sera
Source text: A set of peptides (20-23 amino acids in length, with 5 aa overlaps) that span the human GAD65 molecule were synthesized to determine whether sera from most individuals at risk, pre-IDDM and with IDDM (in contrast to healthy controls) do in fact produce antibodies that differentially recognize GAD65 linear epitopes distributed throughout the molecule.
Patient sera and most control sera were those used in a previous study (Kaufman, et al., J. Clin. Investigation, supra) All samples were coded and tested in a blind manner. Peptides were synthesized using an automatic instrument (Applied Biosystems, Foster City, Calif.) and standard conditions. Peptides were dissolved in 60 mM sodium bicarbonate buffer (pH 9.6) at 20 ug/ml and 100 ul of each was added to duplicated wells of a 96 well Nunc-Immuno Plate. Peptides were allowed to bind at 4° C. overnight. The plates were then washed three times with PBS+0.1% Tween 20 (wash buffer), after which the plates were pre-absorbed with 3% BSA in sodium bicarbonate buffer for 0.5 hours at 37° C., or at room temperature overnight. The plates were then washed 5 times with the above wash buffer. 100 ul of serum at a 1/300 dilution in PBS+0.1% Tween 20 and 1% BSA was added to each well and antibodies were allowed to bind for 1 hour at 37° C. […] The color development was measured at 410 nm using an ELISA plate reader (ICN, Biomedicals, Costa Mesa, Calif.). […]

[2] = tested on: autoantibodies to GAD65; experiment: Immunoprecipitation of 35S-GAD65 by sera drawn before IDDM onset; format: binding, human; conditions: sera drawn 3 to 66 months before IDDM onset
Description: 5. Islet Cell Extractions and Immunoprecipitations. Islet cells were extracted as previously described by Atkinson, et al. (Lancet, 335:1357-1360, 1990) with the following modifications. […] Following another incubation with protein A Sepharose CL-4B (1 h, 4° C.), the complexes were then washed 5 times with 50 mM Tris HCL (pH 7.4) with 0.1% SDS, 1.0% Triton X-114, and 2 mM EDTA, and then washed again one time in double distilled water. The protein A Sepharose CL-4B was then boiled in Laemmli sample buffer (Laemmli, Nature, 227:680-685, 1970), and the samples were subjected to SDS-PAGE and fluororadiography (Kodak, X-omat AR5) using Enhance (New England Nuclear). Alternatively, the autoradiographs were analyzed by a BETAGEN (Boston, Mass.) analyzer. Both 64 KA positive and negative sera were used in each assay, to serve as interassay controls. All fluororadiographs were analyzed and rated as positive or negative after comparison with the known interassay controls.
A similar rating procedure was employed for the intensity of bands corresponding to immunoprecipitated ^35 S-GAD65 and ^35 S-GAD67.
6. Immunoprecipitations. […]
8. […] After sonication, cell debris was removed by centrifugation and protein concentration was measured (Bradford, Anal.Biochem., 72:248, […]) in the supernatant (supernatant was stored in aliquots at -70° C.).

Molecule | share of patients recognizing the peptide [1] | specimens immunoreactive with the labeled protein [2]
KPCSCSKVDVNYAFLHATDL [Peptide 6] | 25-37% | –
^35 S-GAD65: 35S-labeled rat GAD65 produced in a bacterial expression system (protein, UniProt Q05683 1-585, looked up, 35S label, 35S-labeled rat GAD65 produced in a bacterial expression system) Glutamate decarboxylase 2: MASPGSGFWSFGSEDGSGDPENPGTARAWCQVAQKFTGGIGNKLCALLYGDSEKPAESGGSVTSRAATRKVACTCDQKPCSCPKGDVNYALLHATDLLPACEGERPTLAFLQDVMNILLQYVVKSFDRSTKVIDFHYPNELLQEYNWELADQPQNLEEILTHCQTTLKYAIKTGHPRYFNQLSTGLDMVGLAADWLTSTANTNMFTYEIAPVFVLLEYVTLKKMREIIGWPGGSGDGIFSPGGAISNMYAMLIARYKMFPEVKEKGMAAVPRLIAFTSEHSHFSLKKGAAALGIGTDSVILIKCDERGKMIPSDLERRILEVKQKGFVPFLVSATAGTTVYGAFDPLLAVADICKKYKIWMHVDAAWGGGLLMSRKHKWKLNGVERANSVTWNPHKMMGVPLQCSALLVREEGLMQSCNQMHASYLFQQDKHYDLSYDTGDKALQCGRHVDVFKLWLMWRAKGTTGFEAHIDKCLELAEYLYNIIKNREGYEMVFDGKPQHTNVCFWFVPPSLRVLEDNEERMSRLSKVAPVIKARMMEYGTTMVSYQPLGDKVNFFRMVISNPAATHQDIDFLIEEIERLGQDL | – | 9 out of 12
